# According to publication PMC11335206, “Exploring oak processionary caterpillar induced lepidopterism (part 2): ex vivo bio-assays unmask the role of TRPV1” (Cellular and Molecular Life Sciences: CMLS, 2024):
# Positions of bridges follow the written chain, without caps; N, C: chain ends. No end group written: not given here.
# Experiments:
# hTRPV1 = hTRPV1 (Homo sapiens, UniProt Q8NER1); assay: TEVC electrophysiology on TRPV1 expressing oocytes; type: cell-based
# Description: We used Xenopus laevis oocytes as a heterologous expression system in electrophysiological experiments to express ligand-gated and voltage-gated ion channels. Molecular biology techniques (subcloning, transformation, linearization and transcription) were used to make RNA encoding: (1) transient receptor potential channel (hTRPV1 and hTRPA1), (2) histamine receptors (hH1R and hH4R), (3) bradykinin receptor (hB2R), (4) nicotinic acetylcholine receptor (adult muscle type hα1β1δε nAChR and neuronal hα7 nAChR), (5) acid-sensing ion channel (rASIC1a), (6) voltage-gated sodium channels (rNav1.1, rNav1.2, rNav1.3, rNav1.4, mNav1.6 and hNav1.8) and their auxiliary subunits rβ1 and hβ1 and (7) potassium channels (hKv1.1, hKv1.2, hKv1.3, hKv1.4, hKv1.5, hKv1.6, hKv3.1, hKv10.1, mGIRK1, mGIRK2 and mIRK1). Plasmids corresponding to each channel or receptor underwent linearization using specific restriction enzymes and subsequent transcription with the T3, T7, or SP6 mMESSAGE mMACHINE transcription kit (Ambion, USA). Depending on the channel type, defolliculated oocytes were injected with 10–50 nL of cRNA at a concentration of 1 ng/nL using a micro-injector (Nanoject II; Drummond Scientific Company, USA). Electrophysiological experiments were conducted following cRNA injection, with an incubation period of 1–5 days at 16 °C in ND96 buffer.
# hTRPA1 = assay: TEVC electrophysiology on TRPA1 expressing oocytes; type: cell-based, human; conditions: 1 µM A967079; 50 µM mustard oil; holding −90 mV; n ≥ 3
# Description: (§2) We used Xenopus laevis oocytes as a heterologous expression system in electrophysiological experiments to express ligand-gated and voltage-gated ion channels. […] Plasmids corresponding to each channel or receptor underwent linearization using specific restriction enzymes and subsequent transcription with the T3, T7, or SP6 mMESSAGE mMACHINE transcription kit (Ambion, USA). Depending on the channel type, defolliculated oocytes were injected with 10–50 nL of cRNA at a concentration of 1 ng/nL using a micro-injector (Nanoject II; Drummond Scientific Company, USA). Electrophysiological experiments were conducted following cRNA injection, with an incubation period of 1–5 days at 16 °C in ND96 buffer.
# (§3) A two-electrode voltage clamp (TEVC) system utilizing a GeneClamp 500 amplifier (Molecular Devices, Downingtown, PA, USA) was under the control of a pClamp data acquisition system (Axon Instruments, USA), and pClamp Clampex 10.4 software (Axon Instruments®, USA). This setup was employed to measure currents across the cell membrane. The whole-cell currents from the oocytes were recorded at room temperature (18–22 °C). […]
# TRPV1 and TRPA1 currents were continuously monitored in a perfusing ND96 solution, following a protocol at −90 mV for 400 s. […]
# [1] = ref [28], cited from earlier work
# TRPV1 [2] = system: TRPV1; parameters: method as in earlier work; conditions: Latoia consocia; ref [35] Yao et al. (2019); cited from earlier work
# hH1R = type: cell-based, human
# Description: as §2, §3
# (§4) The H1R and B2R couples with Gαq/11 proteins, initiating the release of Ca^2+ from the intracellular stores. This rise in intracellular Ca^2+ will activate the Ca^2+-activated Cl^− channels, serving as a sensitive readout.
# hB2R = assay: TEVC on B2R expressing oocytes; type: cell-based, human; conditions: 1 µM bradykinin; ramp −120 to +70 mV from −20 mV
# Description: as §2, §3, §4
# [3] = system: individuals with atopic dermatitis; conditions: topical, phase III, ref [36]; cited from earlier work
# Description: The results are consistent with the discoveries presented by Yao et al. (2019) regarding Latoia consocia, a caterpillar indigenous to South-West China. […] Despite substantial investments in the quest for TRPV1 antagonists, yet no antagonist is available on the market. Presently, a ...
# TRPV1 [4] = conditions: HEK293 cells, ref [44] Ahern et al. (2005), cited from earlier work
# Description: (§1) Putrescine is a small aliphatic polyamine synthesized by ornithine decarboxylase (ODC) and found in the venom of other animals. Under physiological conditions, putrescine undergoes complete protonation. This property enables putrescine to interact with negatively charged macromolecules, such as DNA, RNA, ATP, phospholipids, or proteins. As a result, it plays a significant role in v ...
# [5] = system: histamine-N-methyltransferase; conditions: ref [47]; cited from earlier work
# Description: as §1
# rat paw = conditions: 10 µmol/paw, subcutaneous injection, ref [46]; cited from earlier work
# Description: as §1
# hH4R = assay: TEVC on H4R-GIRK1/GIRK2-RGS4 oocytes; type: cell-based, human
# Description: as §2
# A two-electrode voltage clamp (TEVC) system utilizing a GeneClamp 500 amplifier (Molecular Devices, Downingtown, PA, USA) was under the control of a pClamp data acquisition system (Axon Instruments, USA), and pClamp Clampex 10.4 software (Axon Instruments®, USA). This setup was employed to measure currents across the cell membrane. The whole-cell currents from the oocytes were recorded at room temperature (18–22 °C). Two micro-electrodes, comprising voltage and current electrodes, were crafted from borosilicate glass capillaries (1.14 mm outside diameter, 0.7 mm inside diameter), pulled using a microelectrode puller, PUL-1 (World Precision Instruments, USA). […]
# Chain of hTRPV1 (Q8NER1 whole entry): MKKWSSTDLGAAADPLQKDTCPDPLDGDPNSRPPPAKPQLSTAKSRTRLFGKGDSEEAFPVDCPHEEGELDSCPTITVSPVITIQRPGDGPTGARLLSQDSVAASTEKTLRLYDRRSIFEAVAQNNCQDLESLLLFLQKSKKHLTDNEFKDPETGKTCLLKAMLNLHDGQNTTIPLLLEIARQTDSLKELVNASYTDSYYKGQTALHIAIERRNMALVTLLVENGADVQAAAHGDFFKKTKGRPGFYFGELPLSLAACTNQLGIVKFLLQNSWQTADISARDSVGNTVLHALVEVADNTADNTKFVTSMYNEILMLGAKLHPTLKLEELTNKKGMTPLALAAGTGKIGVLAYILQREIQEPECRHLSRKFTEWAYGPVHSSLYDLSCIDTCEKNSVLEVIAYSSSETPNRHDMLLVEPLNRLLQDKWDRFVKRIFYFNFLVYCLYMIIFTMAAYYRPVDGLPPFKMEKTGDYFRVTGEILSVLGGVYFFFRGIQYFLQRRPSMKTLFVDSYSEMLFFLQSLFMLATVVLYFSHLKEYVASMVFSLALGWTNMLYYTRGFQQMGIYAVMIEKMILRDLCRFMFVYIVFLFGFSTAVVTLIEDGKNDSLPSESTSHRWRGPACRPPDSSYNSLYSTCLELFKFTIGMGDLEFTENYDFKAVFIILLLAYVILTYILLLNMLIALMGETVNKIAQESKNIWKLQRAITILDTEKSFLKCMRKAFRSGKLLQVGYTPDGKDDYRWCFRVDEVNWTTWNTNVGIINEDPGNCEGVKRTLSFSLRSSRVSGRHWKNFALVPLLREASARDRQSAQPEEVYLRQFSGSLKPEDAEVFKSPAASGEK
molecule,measurement,setting,value
COc1cc(CNC(=O)CCCC/C=C/C(C)C)ccc1O [capsaicin],TRPV1 current by agonist,hTRPV1,a current increase
CCC(=N\O)/C(C)=C/c1ccc(F)cc1 [A967079],block of mustard oil effect on TRPA1,hTRPA1,is blocked
COc1ccc2c(c1)c(CC(=O)O)c(C)n2C(=O)c1ccc(Cl)cc1 [indomethacin],reduction of secapin-2 edema formation and pain sensation,[1]; nonspecific antagonist of cyclooxygenase,did not show any reducing effects on edema formation and pain sensation
CC(c1cc2ccccc2s1)N(O)C(N)=O (stereo not drawn) [Zileuton],suppression of pain and edema induced by secapin-2,"[1]; 5-lipoxygenase blocker, secapin-2 injection",suppress pain and edema responses
Oc1cc2c(cc1O)CN(C(=S)NCCc1ccc(Cl)cc1)CCC2 [capsazepine],reduction of caterpillar-induced pain,TRPV1 [2],a notable reduction
same,block of venom extract-induced TRPV1 current increase,"hTRPV1; 10 µM capsazepine, 0.4 µg/µL extract + 1 µM capsaicin, holding −90 mV, n ≥ 3",the current increase by whole venom setae extract disappeared
DHETDLDDSNVPRIGRHIIDAPKRGCPEGYRKDHQGKCREVL (disulfide 26-38) [TPTX1-Tp1],"effect on TRPV1, peptide alone","hTRPV1; 1 µM TPTX1-Tp1 (Fig. 4B), no capsaicin, ramp −120 to +70 mV from −20 mV, ND96",does not have an effect on TRPV1 injected oocytes
same,TRPV1 current with capsaicin,"hTRPV1; TPTX1-Tp1 combined with 0.1 µM capsaicin, ramp −120 to +70 mV from −20 mV, ND96",induces an increase in the current
NCCc1c[nH]cn1 [histamine],H1R current by agonist,hH1R,a current increase
bradykinin,B2R conductance by agonist,hB2R,evoked a change of conductance
CCCc1nc(C(F)(F)F)ccc1/C=C/C(=O)N[C@H](C)c1cc(F)c(NS(C)(=O)=O)c(F)c1 [Asivatrep],clinical efficacy,[3],encouraging results
same,safety profile,[3],a favorable safety profile
NCCCCN [putrescine],"TRPV1 activity, putrescine alone",TRPV1 [4]; 5 mM putrescine alone,did not induce a detectable TRPV1 activity
same,enhancement of capsaicin-evoked TRPV1 current,TRPV1 [4]; 5 mM putrescine with 30 nM capsaicin,remarkably intensified the current evoked by 30 nM capsaicin
same,histamine-N-methyltransferase activity,[5],inhibiting histamine-N-methyltransferase activity
same,duration of sustained edema,rat paw,6 h
same,mechanical allodynia,rat paw,induction of mechanical allodynia
CN1CCN(C(=O)c2cc3cc(Cl)ccc3[nH]2)CC1 [JNJ 7777120],block of histamine effect on H4R,hH4R,The effect of histamine (blue) was blocked
